In article PMC11862924, “Phenylpyrazoles as Inhibitors of the m^6A RNA-Binding Protein YTHDF2” (JACS Au, 2025):
“Also recorded” adds a separate entry of the source.

Key:
YTHDF2 YTH domain = molecular target: T1, YTHDF2 YTH domain (Homo sapiens, UniProt Q9Y5A9); test: AlphaScreen assay
T1 sequence (Q9Y5A9 383-553): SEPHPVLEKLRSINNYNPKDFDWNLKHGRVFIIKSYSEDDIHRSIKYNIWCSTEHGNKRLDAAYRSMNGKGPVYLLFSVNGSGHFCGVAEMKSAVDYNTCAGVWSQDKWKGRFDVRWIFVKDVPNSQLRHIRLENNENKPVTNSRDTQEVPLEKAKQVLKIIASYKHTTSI
Protocol: Initially, the YTHDF2 YTH domain at different concentrations (0–2500 nM) was incubated with varied concentrations of RNA probes (5’-Bi-CGAm6ACUGUC–3′, IDT company) (5, 25, 50, and 100 nM) in 25 mM Hepes (pH 7.5), 100 mM NaCl, and 0.1% BSA to probe the optimal ratio between protein and RNA before the detection signal reached saturation. The AlphaScreen Histidine Detection Kit (Nickel Chelate) (PerkinElmer) 6760619 M and white 384-well Optiplates (PerkinElmer) were used. Anti-His receptor beads (PerkinElmer) (final concentration: 20 μg/mL) and streptavidin donor beads (final concentration: 20 μg/mL) were first added. The reaction mixture was then incubated at room temperature in a dark environment for 1 h to reach equilibrium. The optical signal was detected using a Tecan plate reader.
The inhibitory activities of the phenylpyrazoles (at 100 µM) against YTHDF2 binders
in the amplified luminescent proximity homogeneous assay (AlphaScreen).
phenylpyrazoles featuring a 2 -hydroxybenzoyl moiety R1 (blue) and a 4 -carboxyphenyl moiety
represent average values ± s.d.

K562 = test: CCK-8 proliferation assay, K562; format: cell-based; conditions: Homo sapiens, CCK-8 kit assay, triplicates, 72 h, read-out: Anti-proliferation activity against cancer cells (IC50), K562
Protocol: The JAR, K562, HCT116, and MOLM13 cells were seeded in 96-well plates (3000 cells/well). After being cultured overnight, compounds were added together with the DMSO treatment (0.1%) as a control. After 72 h, CCK-8 solution (Vazyme, A311) was added, and the cells were incubated at 37 °C for 4 h. The absorbance was measured at 450 nm using a plate reader (TECAN Spark).

[1] = molecular target: T2, YTHDF3 (residues 391-585) (Homo sapiens, UniProt Q7Z739); test: FP assay with YTH domain of YTHDF3; format: binding; conditions: 2.0 µM YTHDF3
T2 construct: YTHDF3 (residues 391–585); made in house; host or cells: Escherichia coli BL21(DE3); plasmid from the Zhou lab (Boston College)
T2 sequence (Q7Z739 391-585): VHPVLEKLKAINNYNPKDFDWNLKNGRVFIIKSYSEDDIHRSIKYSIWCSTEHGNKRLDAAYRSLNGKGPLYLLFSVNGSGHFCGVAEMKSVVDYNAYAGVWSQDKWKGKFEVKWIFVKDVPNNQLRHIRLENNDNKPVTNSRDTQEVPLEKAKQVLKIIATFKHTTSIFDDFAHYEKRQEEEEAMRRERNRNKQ
Protocol: The FP assay was performed in 384-well black plates (Corning no. 4514) with a total reaction volume of 15 μL. The final concentrations of protein (YTHDF2) and RNA were […], respectively, in a buffer containing 20 mM HEPES/KOH pH 7.5, 50 mM NaCl, 0.005% Tween 20, and 1 mM GSH (DTT). Compounds were incubated with protein, added FAM-m^6A RNA probe ([…](m6)ACUGUG) (purchased from IDT), and incubated at 4 °C for 30 min. The fluorescence polarization was measured using a plate reader (TECAN Spark) under an excitation wavelength of 485 nm and an emission wavelength of 535 nm with a bandwidth of 20 nm. […] The data were determined using GraphPad Prism 9.
Figure S9. The FP assay of YTHDF3 binding to the m6A RNA substrate. (A) The purification of YTHDF3 (residues 391-585), molecular weight: 24.1 kDa. (B) The anisotropy values using different concentrations of YTHDF3 with the m6A RNA probe (4 nM), which was used to decide the appropriate […] concentration for the FP (2.0 µM of YTHDF3, Z-factor: 0.55). (C) The […]
(1 picture or pasted object on this page, not shown here)

YTHDF2 = molecular target: T3, YTHDF2 (Homo sapiens, UniProt Q9Y5A9); test: Electrophoretic mobility shift assay (EMSA); format: binding; conditions: for inhibition of the YTHDF2–m6A RNA interaction in EMSA at 100 μM (in words): 100 μM compound, 250 nM YTHDF2, FAM-labeled m6A RNA; for concentration-dependent inhibition of YTHDF2–m6A RNA complex formation in EMSA (in words): 3.1–100 μM compound, 250 nM YTHDF2, 20 nM FAM-labelled m6A RNA
T3 construct: A YTHDF2 YTH domain construct (residues 383–553) was subcloned to a pOPIN plasmid; made in house; host or cells: Escherichia coli BL21(DE3)
T3 sequence (Q9Y5A9 383-553): T1 sequence (Q9Y5A9 383-553)
Protocol: Compounds with different concentrations (3.1–100 μM) were incubated with 250 nM YTH-domain and 20 nM FAM-17mer-RNA in a buffer containing 20 mM HEPES, pH 8.2, 50 mM NaCl, 0.05% Triton X-100, and 5% v/v glycerol for 20 min at 4 °C. […] Gel imaging was performed in ChemiDoc MP (Bio-Rad), and Cy2/Alexa488 fluorescence was detected with a 1-min exposure time. Quantification of the gel image was performed by ImageJ.

K562 cells [2] = test: Cell cycle analysis by flow cytometry; format: cell-based, human; conditions: 24 h
Protocol: K562 cells were seeded in 6-well plates (1.0 × 10^6 cells/well) and incubated overnight. Compounds of different concentrations were added to the 6-well plates. The cell cycle analysis kit (SIGMA-Aldrich, MAK344) was used after incubation for 24 h. The cells were detached with trypsin and washed with 2 mL of ice-cold cell cycle assay buffer for each sample. The supernatant was removed after centrifugation. The cells were fixed by adding 2 mL of ice-cold 70% ethanol (added dropwise while vortexing) to the cell pellet and then placed on ice for 30 min. The supernatant was removed after centrifuging at 400 × g for 5 min. Cells were washed with a cell cycle assay buffer (2 mL). Cells were resuspended completely in 500 μL of staining solution and were protected from light exposure. After being incubated at room temperature for 30 min, each sample was analyzed by flow cytometry (Sony Biotechnology Cell Sorter SH800S) with proper machine settings. The data were analyzed by cell sorter software (Sony Biotechnology).

K562 cells [3] = test: Apoptosis assay (Annexin V/PI flow cytometry); format: cell-based, human; conditions: 24 h
Protocol: (§1) K562 cells were seeded in six-well plates (1.0 × 10^6 cells/well) and incubated overnight. Compounds of different concentrations were added to the 6-well plates. After incubation for 24 h, the cells were detached with trypsin, washed twice with PBS and cold BioLegend’s cell staining buffer, and then, 5 μL of FITC Annexin V and 10 μL of propidium iodide solution were added. The cells were gently vortexed and incubated in a dark environment for 15 min at room temperature (25 °C). After adding 400 μL of Annexin V binding buffer to each tube, each sample was analyzed by flow cytometry (Sony Biotechnology Cell Sorter SH800S) with proper machine settings, and the data were analyzed by cell sorter software (Sony Biotechnology).

[4] = Apoptosis assay (Annexin V/PI flow cytometry); format: cell-based, human; conditions: human, K562 cells, read-out: Q3: viable
Protocol: as §1

JAR cells = test: Colony formation assay; format: cell-based, human; conditions: n = 3 biological replicates
Protocol: JAR cells in the growth phase are prepared into cell suspensions by traditional digestion. A cell suspension (2 mL) with 200 cells per dish was seeded into a 6-well plate and incubated for 7 days. When visible colonies are present in the 6-well plate, the medium is discarded. The colonies are carefully soaked twice in PBS and dried in air. Cells were fixed with a 4% paraformaldehyde solution for 15 min. The paraformaldehyde solution was discarded, and Giemsa was used to stain the cells for 10 min. The dye solution was slowly washed away with Milli-Q water and then dried in air. The colony number and type were assessed manually under a microscope.

inhibition at 100 μM in AlphaScreen (YTHDF2 YTH domain; 100 μM compound) [%]	inhibitory IC50 in AlphaScreen (in words) (YTHDF2 YTH domain; Figures S3 and S4)	IC50 (K562) [µM]	inhibition at 100 µM ([1]; read-out: inhibition of YTHDF3 at 100 μM in FP, 100 μM compound) [%]	concentration-dependent inhibition of YTHDF2–m6A RNA complex formation in EMSA (in words) (YTHDF2)	inhibitory activity against YTHDF3 in FP (in words) [1]	Structure (SMILES)	inhibition of the YTHDF2–m6A RNA interaction in EMSA at 100 μM (in words) (YTHDF2)	cells in the G0/G1 phase (K562 cells [2]; 25 μM) [%]	cell cycle arrest (in words) (K562 cells [2])	total apoptosis (Q2 + Q4) (K562 cells [3]; 25 μM) [%]	total apoptosis (Q2 + Q4) (K562 cells [3]; 50 μM) [%]	total apoptosis (Q2 + Q4) (K562 cells [3]; 100 μM) [%]	viability at 24 h, 25 µM ([4]; 25 μM) [%]	viability at 24 h, 50 µM ([4]; 50 μM) [%]	viability at 24 h, 100 µM ([4]; 100 μM) [%]	colony formation (in words) (JAR cells)
> 80	low double-digit micromolar	> 50	12.4	potent inhibition		O=C(O)c1ccc(-n2cc(C(=O)c3cc(Cl)cc(Cl)c3O)cn2)cc1 [CK-61]	potent inhibition; also recorded: potently inhibited									
					inactive	O=C(O)c1ccc(-n2cc(C(=O)c3c(O)ccc4ccccc34)cn2)cc1 [CK-75]		> 70	induced cell cycle arrest in the G0/G1 phase concentration-dependently	28.3	34.9	45.4	71.6	65.1	54.5	concentration-dependently inhibited the colony formation
		28.1 ± 1.6		potent inhibition		Cc1cc(O)c(C(=O)c2cnn(-c3ccc(C(=O)O)cc3)c2)cc1Cl [CK-79]	potent inhibition; also recorded: potently inhibited									
